SMILES strings stand for the structures.

Experiment [1] concerns leukotriene C4-induced contraction of guinea pig peripheral strips. Briefly: SRS-A antagonists (SALTI): inhibition of leukotriene C4-induced contraction of guinea pig peripheral lung strips. The format is cell-based. The conditions noted are these: 0.2 nM leukotriene C4, 37° C.; for IC50: Cavia porcellus, read-out: concentration required for 50% inhibition of leukotriene C4-induced contraction (I50). As to the method: Peripheral strips of guinea pig lungs are prepared and hung in tissue baths (Metro #ME-5505, 10 ml) according to the published procedure (Pro. Nat'l. Acad. Sci., U.S.A. Volume 77, pp. 4354-4358, 1980). The strips are thoroughly rinsed in Assay Buffer and then connected with surgical silk thread to the support rods from the tissue baths. The rods are adjusted in the baths and the strips connected to the pressure transducers (Grass FT 103 or Gould UC-3--. The tissue baths are aerated with 95% oxygen-5% carbon dioxide and maintained at 37° C. The Assay Buffer has been made as follows:
For each liter of buffer the following are added to approximately 800 ml of water distilled in glass: 6.87 g NaCl, 0.4 g KCl, […] NaHCO3, 0.14 g NaH2 PO4 H2 O, 0.21 g MgSO4 7H2 O, and 2.0 g D-glucose. Tehn a solution of 0.368 g CaCl2 2H2 O in 100 ml glass-distilled water is slowly added to the buffer. Sufficient water is added to adjust the volume to one liter, and the solution is aerated with 95% oxygen--5% carbon dioxide. Usually 10 liters of buffer are used for an experiment with 4 tissues.
After the tissues have been repeatedly washed and allowed to equilibrate in the tissue bath, they are challenged with 1 μM histamine. After maximum contractions have been obtained, the tissues are washed, and allowed to relax back to baseline tension. This histamine challenge procedure is repeated at least 1 to 2 more times ot obtain a repeatable control response. The average response to 1 μM histamine for each tissue is used to normalize all other challenges.
Responses of each tissue to a predetermined concentration of leukotriene are then obtained. Usually test compounds are examined initially at 30 μM on resting tension of the tissues without any added agonist or antagonist to determine if the compound has any possible intrinsic activity. The tissues are washed, and the test compound is added again. Leukotriene is added after the desired pre-incubation time. The intrinsic activity of the compounds and their effect on leukotriene-induced contractions are then recorded.
The concentration required for 50% inhibition of 0.2 nM leukotriene C4 -induced contraction of guinea pig peripheral strips for the compounds of the Examples 1 to 6 is as follows: […]

The target in another experiment is T1, 5-lipoxygenase (Rattus norvegicus, UniProt P12527).
T1 construct: A suspension of rat neutrophils in buffer; endogenous in cells; host or cells: rat neutrophils
T1 sequence (P12527 1-673): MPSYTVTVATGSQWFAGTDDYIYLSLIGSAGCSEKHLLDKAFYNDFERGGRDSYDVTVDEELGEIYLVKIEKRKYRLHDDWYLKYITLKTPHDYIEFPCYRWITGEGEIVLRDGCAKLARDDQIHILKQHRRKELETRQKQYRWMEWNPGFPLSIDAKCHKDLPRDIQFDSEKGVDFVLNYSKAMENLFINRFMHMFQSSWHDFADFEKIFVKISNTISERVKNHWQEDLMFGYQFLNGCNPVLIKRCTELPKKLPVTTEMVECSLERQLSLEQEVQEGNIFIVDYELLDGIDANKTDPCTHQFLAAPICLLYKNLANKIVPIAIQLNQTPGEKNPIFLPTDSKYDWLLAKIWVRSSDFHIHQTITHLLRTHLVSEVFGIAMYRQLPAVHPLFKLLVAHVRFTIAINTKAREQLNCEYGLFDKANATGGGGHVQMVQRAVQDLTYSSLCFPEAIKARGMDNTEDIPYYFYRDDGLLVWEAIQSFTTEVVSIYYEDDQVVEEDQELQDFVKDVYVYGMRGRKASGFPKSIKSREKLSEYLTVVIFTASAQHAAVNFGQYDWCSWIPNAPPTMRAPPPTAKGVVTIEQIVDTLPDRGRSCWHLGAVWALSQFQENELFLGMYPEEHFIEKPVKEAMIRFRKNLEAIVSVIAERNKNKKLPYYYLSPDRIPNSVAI
Briefly: Inhibition of 5-lipoxygenase (5-HETE formation from [14C]-arachidonic acid in rat neutrophils, Calcium Ionophore A23187). The following applies: 3 minutes at 30° C.; for IC50: net 5-HETE, read-out: concentration required for inhibition of the 5-lipoxygenase (5-LOX/I50). The format is cell-based. As to the method:
The following protocol describes an assay to detect inhibitors of the lipoxygenase. Such inhibitors are believed to be capable of modulating the biosynthesis of the leukotrienes, a property believed to be useful in treating asthma and inflammatory disease states.
A suspension of rat neutrophils in buffer is incubated for 3 minutes at 30° C. with [^14 C]-arachidonic acid (AA) and Calcium Ionophore A23187. Citric acid (2M) is used to quench the reaction. Following the addition of a trace amount of (^3 H)-5-HETE together with an excess of unlabeled 5-HETE to each tube, the mixture is extracted with chloroform/methanol. The organic layer is washed wth dilute acid and an aliquot is transferred to glass tubes and dried. The residue is dissolved in a small volume of chloroform and an aliquot is spotted on silica gel TLC sheets, which are developed with an ethyl acetate/isooctane/water/acetic acid solvent system. The 5-HETE spots are visualized with iodine, cut out and placed in scintillation vials for counting. After adjusting for the extraction efficiency, the amount (pmole) of [^14 C]-5-HETE in each of the tubes is quantitated. The net pmoles of 5-HETE are obtained by subtracting the pmoles of 5-HETE in the tubes containing buffer alone (blank) from the pmoles of 5-HETE in the tubes containing […]. The ability of the test compounds to modulate the activity of this enzyme is determined by a decrease or increase in the net amount of 5-HETE produced.

On to `O=Cc1cccn1-c1cccc(Oc2ccccc2)c1` [Example 1, 1-(3-Phenoxyphenyl)-pyrrole-2-aldehyde], for which the IC50 in experiment [1] stood at 20 µM. Further, the “relative activity at 10 μM (5-lipoxygenase inhibition)” value at 5-lipoxygenase is on record as “medium”.

Regarding `O=Cc1ccn(-c2cccc(Oc3ccccc3)c2)c1` [Example 2, 1-(3-Phenoxyphenyl)-pyrrole-3-aldehyde], in experiment [1], the IC50 is 18 µM. Moreover, on 5-lipoxygenase, the “relative activity at 10 μM (5-lipoxygenase inhibition)” value is on record as “medium”.

Take `CCCCCC(O)c1cccn1-c1cccc(Oc2ccccc2)c1` (stereo not shown) [Example 3, 2-(1-Hydroxyhexyl)-1-(3-phenoxyphenyl)pyrrole]: the “concentration required for 50% inhibition of leukotriene C4-induced contraction (I50)” value in experiment [1] is listed as “Inactive”. Moreover, on 5-lipoxygenase, the IC50 was 7 µM.

On to `CCCCCC(O)c1ccn(-c2cccc(Oc3ccccc3)c2)c1` (stereo not shown) [Example 4, 3-(1-Hydroxyhexyl)-1-(3-phenoxyphenyl)pyrrole], for which the IC50 on 5-lipoxygenase worked out at 4 µM.

On to `CCCCCC(O)c1cccn1-c1ccccc1` (stereo not shown) [Example 5, 2-(1-Hydroxyhexyl)-1-phenylpyrrole], for which the “concentration required for 50% inhibition of leukotriene C4-induced contraction (I50)” value in experiment [1] was “Inactive”. Also, at 5-lipoxygenase, the IC50 is 20 µM.

Consider `CCCCCC(O)c1ccn(-c2ccccc2)c1` (stereo not shown) [Example 6, 3-(1-Hydroxyhexyl)-1-phenylpyrrole], for which, at 5-lipoxygenase, the “relative activity at 10 μM (5-lipoxygenase inhibition)” value is on record as “medium”.
